Assay results published in PMC12446476 (Nature Communications, 2025).
Values after ≈ are worked out from the molar mass of the structure shown. Like-named read-outs stand apart in the source and are kept apart here.

Test system: non-gonococcal Neisseria
Experiment: MIC determination for non-gonococcal Neisseria, agar dilution
Format: cell-based, Neisseria species
Settings: read-out: Minimum inhibitory concentration
From the text: The 2024 WHO N. gonorrhoeae reference strains were used for quality control. Only whole MIC doubling dilutions are reported. Clinical breakpoints or the epidemiological cutoff (ECOFF, to indicate azithromycin resistance) from EUCAST (v14.0, https://www.eucast.org/clinical_breakpoints) were used to classify isolates as antimicrobial susceptible or resistant. […] Two times the standard inoculum defined by CLSI was used to establish consistent growth in untreated control samples for some strains. In vitro time-kill assays were performed according to CLSI guidelines[65] using Columbia Broth (BD Difco) supplemented with 1% IsoVitaleX Enrichment (BD). Viable bacterial counts were generated by plating 10-fold serially diluted samples on GC agar plates containing 1% IsoVitaleX Enrichment (BD).

With `Cc1c(CN(C)C(=O)/C=C/c2cnc3c(c2)N[C@H](C)[C@H](O)C(=O)N3)oc2ccccc12` [Debio 1453] the MIC (Neisseria animalis 1, Consensus) was 0.25 µg/mL (≈ 0.595 µM), the MIC (Neisseria animalis 1, Replicate 1) was 0.25 µg/mL (≈ 0.595 µM) and the MIC (Neisseria animalis 1, Replicate 2) was 0.25 µg/mL (≈ 0.595 µM). For the same compound, the MIC (Neisseria animalis 1, Replicate 3) was 0.25 µg/mL (≈ 0.595 µM), the MIC (Neisseria cinerea 1, Consensus) was 0.032 µg/mL (≈ 0.0761 µM) and the MIC (Neisseria cinerea 1, Replicate 1) was 0.032 µg/mL (≈ 0.0761 µM). For the same compound, the MIC (Neisseria cinerea 1, Replicate 2) was 0.032 µg/mL (≈ 0.0761 µM), the MIC (Neisseria cinerea 1, Replicate 3) was 0.032 µg/mL (≈ 0.0761 µM) and the MIC (Neisseria cinerea 2, Consensus) was 0.25 µg/mL (≈ 0.595 µM). It also gave an MIC (Neisseria cinerea 2, Replicate 1) of 0.25 µg/mL (≈ 0.595 µM), an MIC (Neisseria cinerea 2, Replicate 2) of 0.25 µg/mL (≈ 0.595 µM) and an MIC (Neisseria cinerea 2, Replicate 3) of 0.25 µg/mL (≈ 0.595 µM). The MIC (Neisseria cinerea 3, Consensus) was 0.008 µg/mL (≈ 0.019 µM), the MIC (Neisseria cinerea 3, Replicate 1) was 0.008 µg/mL (≈ 0.019 µM) and the MIC (Neisseria cinerea 3, Replicate 2) was 0.016 µg/mL (≈ 0.0381 µM). For the same compound, the MIC (Neisseria cinerea 3, Replicate 3) was 0.008 µg/mL (≈ 0.019 µM), the MIC (Neisseria cinerea 6, Consensus) was 0.016 µg/mL (≈ 0.0381 µM) and the MIC (Neisseria cinerea 6, Replicate 1) was 0.032 µg/mL (≈ 0.0761 µM). The MIC (Neisseria cinerea 6, Replicate 2) was 0.016 µg/mL (≈ 0.0381 µM), the MIC (Neisseria cinerea 6, Replicate 3) was 0.016 µg/mL (≈ 0.0381 µM) and the MIC (Neisseria cinerea 7, Consensus) was 0.5 µg/mL (≈ 1.19 µM). The MIC (Neisseria cinerea 7, Replicate 1) was 0.5 µg/mL (≈ 1.19 µM), the MIC (Neisseria cinerea 7, Replicate 2) was 0.5 µg/mL (≈ 1.19 µM) and the MIC (Neisseria cinerea 7, Replicate 3) was 0.5 µg/mL (≈ 1.19 µM). For the same compound, the MIC (Neisseria cinerea 8, Replicate 1) was 0.25 µg/mL (≈ 0.595 µM), the MIC (Neisseria cinerea 9, Consensus) was 0.5 µg/mL (≈ 1.19 µM) and the MIC (Neisseria cinerea 9, Replicate 1) was 0.5 µg/mL (≈ 1.19 µM). It also gave an MIC (Neisseria cinerea 9, Replicate 2) of 0.5 µg/mL (≈ 1.19 µM), an MIC (Neisseria cinerea 9, Replicate 3) of 0.5 µg/mL (≈ 1.19 µM) and an MIC (Neisseria elongata 2, Consensus) of 2 µg/mL (≈ 4.76 µM). The MIC (Neisseria elongata 2, Replicate 1) was 2 µg/mL (≈ 4.76 µM), the MIC (Neisseria elongata 2, Replicate 2) was 2 µg/mL (≈ 4.76 µM) and the MIC (Neisseria elongata 2, Replicate 3) was 2 µg/mL (≈ 4.76 µM). For the same compound, the MIC (Neisseria elongata 3, Consensus) was 1 µg/mL (≈ 2.38 µM), the MIC (Neisseria elongata 3, Replicate 1) was 1 µg/mL (≈ 2.38 µM) and the MIC (Neisseria elongata 3, Replicate 2) was 1 µg/mL (≈ 2.38 µM). The MIC (Neisseria elongata 3, Replicate 3) was 1 µg/mL (≈ 2.38 µM), the MIC (Neisseria flava 1, Replicate 2) was 0.064 µg/mL (≈ 0.152 µM) and the MIC (Neisseria flavescens 1, Consensus) was 0.016 µg/mL (≈ 0.0381 µM). The MIC (Neisseria flavescens 1, Replicate 1) was 0.032 µg/mL (≈ 0.0761 µM), the MIC (Neisseria flavescens 1, Replicate 2) was 0.016 µg/mL (≈ 0.0381 µM) and the MIC (Neisseria flavescens 1, Replicate 3) was 0.016 µg/mL (≈ 0.0381 µM). The MIC (Neisseria flavescens 2, Replicate 2) was 0.25 µg/mL (≈ 0.595 µM), the MIC (Neisseria flavescens 3, Consensus) was 0.25 µg/mL (≈ 0.595 µM) and the MIC (Neisseria flavescens 3, Replicate 1) was 0.25 µg/mL (≈ 0.595 µM). It also gave an MIC (Neisseria flavescens 3, Replicate 2) of 0.25 µg/mL (≈ 0.595 µM), an MIC (Neisseria flavescens 3, Replicate 3) of 0.25 µg/mL (≈ 0.595 µM) and an MIC (Neisseria flavescens 4, Consensus) of 0.5 µg/mL (≈ 1.19 µM). The MIC (Neisseria flavescens 4, Replicate 1) was 0.25 µg/mL (≈ 0.595 µM), the MIC (Neisseria flavescens 4, Replicate 2) was 0.5 µg/mL (≈ 1.19 µM) and the MIC (Neisseria flavescens 4, Replicate 3) was 0.5 µg/mL (≈ 1.19 µM). For the same compound, the MIC (Neisseria flavescens 5, Consensus) was 0.5 µg/mL (≈ 1.19 µM), the MIC (Neisseria flavescens 5, Replicate 1) was 0.25 µg/mL (≈ 0.595 µM) and the MIC (Neisseria flavescens 5, Replicate 2) was 1 µg/mL (≈ 2.38 µM). It also gave an MIC (Neisseria flavescens 5, Replicate 3) of 0.5 µg/mL (≈ 1.19 µM), an MIC (Neisseria flavescens 6, Consensus) of 0.064 µg/mL (≈ 0.152 µM) and an MIC (Neisseria flavescens 6, Replicate 1) of 0.064 µg/mL (≈ 0.152 µM). The MIC (Neisseria flavescens 6, Replicate 2) was 0.064 µg/mL (≈ 0.152 µM), the MIC (Neisseria flavescens 6, Replicate 3) was 0.064 µg/mL (≈ 0.152 µM) and the MIC (Neisseria flavescens 7, Consensus) was 0.5 µg/mL (≈ 1.19 µM). For the same compound, the MIC (Neisseria flavescens 7, Replicate 1) was 0.5 µg/mL (≈ 1.19 µM), the MIC (Neisseria flavescens 7, Replicate 2) was 0.5 µg/mL (≈ 1.19 µM) and the MIC (Neisseria flavescens 7, Replicate 3) was 1 µg/mL (≈ 2.38 µM). The MIC (Neisseria flavescens 8, Replicate 1) was 0.064 µg/mL (≈ 0.152 µM), the MIC (Neisseria flavescens 9, Consensus) was 1 µg/mL (≈ 2.38 µM) and the MIC (Neisseria flavescens 9, Replicate 1) was 1 µg/mL (≈ 2.38 µM). For the same compound, the MIC (Neisseria flavescens 9, Replicate 2) was 1 µg/mL (≈ 2.38 µM), the MIC (Neisseria flavescens 9, Replicate 3) was 1 µg/mL (≈ 2.38 µM) and the MIC (Neisseria flavescens 10, Replicate 2) was 0.25 µg/mL (≈ 0.595 µM). It also gave an MIC (Neisseria flavescens 11, Consensus) of 0.5 µg/mL (≈ 1.19 µM), an MIC (Neisseria flavescens 11, Replicate 1) of 0.5 µg/mL (≈ 1.19 µM) and an MIC (Neisseria flavescens 11, Replicate 2) of 1 µg/mL (≈ 2.38 µM). It also gave an MIC (Neisseria flavescens 11, Replicate 3) of 0.5 µg/mL (≈ 1.19 µM), an MIC (Neisseria flavescens 12, Consensus) of 0.064 µg/mL (≈ 0.152 µM) and an MIC (Neisseria flavescens 12, Replicate 1) of 0.064 µg/mL (≈ 0.152 µM). It also gave an MIC (Neisseria flavescens 12, Replicate 2) of 0.064 µg/mL (≈ 0.152 µM), an MIC (Neisseria flavescens 13, Consensus) of 1 µg/mL (≈ 2.38 µM) and an MIC (Neisseria flavescens 13, Replicate 1) of 1 µg/mL (≈ 2.38 µM). The MIC (Neisseria flavescens 13, Replicate 2) was 1 µg/mL (≈ 2.38 µM), the MIC (Neisseria flavescens 13, Replicate 3) was 1 µg/mL (≈ 2.38 µM) and the MIC (Neisseria flavescens 14, Consensus) was 1 µg/mL (≈ 2.38 µM). It also gave an MIC (Neisseria flavescens 14, Replicate 1) of 1 µg/mL (≈ 2.38 µM), an MIC (Neisseria flavescens 14, Replicate 2) of 1 µg/mL (≈ 2.38 µM) and an MIC (Neisseria flavescens 14, Replicate 3) of 1 µg/mL (≈ 2.38 µM). The MIC (Neisseria flavescens 15, Consensus) was 1 µg/mL (≈ 2.38 µM), the MIC (Neisseria flavescens 15, Replicate 1) was 1 µg/mL (≈ 2.38 µM) and the MIC (Neisseria flavescens 15, Replicate 2) was 1 µg/mL (≈ 2.38 µM). For the same compound, the MIC (Neisseria flavescens 15, Replicate 3) was 1 µg/mL (≈ 2.38 µM), the MIC (Neisseria flavescens 16, Consensus) was 0.25 µg/mL (≈ 0.595 µM) and the MIC (Neisseria flavescens 16, Replicate 1) was 0.25 µg/mL (≈ 0.595 µM). For the same compound, the MIC (Neisseria flavescens 16, Replicate 2) was 0.25 µg/mL (≈ 0.595 µM), the MIC (Neisseria flavescens 16, Replicate 3) was 0.25 µg/mL (≈ 0.595 µM) and the MIC (Neisseria flavescens 17, Consensus) was 1 µg/mL (≈ 2.38 µM). It also gave an MIC (Neisseria flavescens 17, Replicate 1) of 1 µg/mL (≈ 2.38 µM), an MIC (Neisseria flavescens 17, Replicate 2) of 0.5 µg/mL (≈ 1.19 µM) and an MIC (Neisseria flavescens 17, Replicate 3) of 1 µg/mL (≈ 2.38 µM). The MIC (Neisseria gonorrhoeae subspecies kochii 1, Consensus) was 0.016 µg/mL (≈ 0.0381 µM), the MIC (Neisseria gonorrhoeae subspecies kochii 1, Replicate 1) was 0.032 µg/mL (≈ 0.0761 µM) and the MIC (Neisseria gonorrhoeae subspecies kochii 1, Replicate 2) was 0.016 µg/mL (≈ 0.0381 µM). The MIC (Neisseria gonorrhoeae subspecies kochii 1, Replicate 3) was 0.016 µg/mL (≈ 0.0381 µM), the MIC (Neisseria gonorrhoeae subspecies kochii 2, Consensus) was 0.008 µg/mL (≈ 0.019 µM) and the MIC (Neisseria gonorrhoeae subspecies kochii 2, Replicate 1) was 0.008 µg/mL (≈ 0.019 µM). For the same compound, the MIC (Neisseria gonorrhoeae subspecies kochii 2, Replicate 2) was 0.008 µg/mL (≈ 0.019 µM), the MIC (Neisseria gonorrhoeae subspecies kochii 2, Replicate 3) was 0.008 µg/mL (≈ 0.019 µM) and the MIC (Neisseria gonorrhoeae subspecies kochii 3, Consensus) was 0.008 µg/mL (≈ 0.019 µM). The MIC (Neisseria gonorrhoeae subspecies kochii 3, Replicate 1) was 0.008 µg/mL (≈ 0.019 µM), the MIC (Neisseria gonorrhoeae subspecies kochii 3, Replicate 2) was 0.008 µg/mL (≈ 0.019 µM) and the MIC (Neisseria gonorrhoeae subspecies kochii 3, Replicate 3) was 0.008 µg/mL (≈ 0.019 µM). The MIC (Neisseria lactamica 1, Consensus) was 0.032 µg/mL (≈ 0.0761 µM), the MIC (Neisseria lactamica 1, Replicate 1) was 0.032 µg/mL (≈ 0.0761 µM) and the MIC (Neisseria lactamica 1, Replicate 2) was 0.064 µg/mL (≈ 0.152 µM).
